From patent publication US20160263097A1 (Bristol-Myers Squibb Company, priority 2012, published 2016)
“And” between values parts separate entries of the source, which are not always exact repeats. Equal entries are not always repeated.

Experiments:
Assay type in all cases: in vivo, human
[1] = Study 1: open-label 2-way crossover relative bioavailability, tablet vs oral liquid formulation; conditions: for Tmax / AUC(0-t) / AUC(0-inf) / half-life: human, plasma; for half-life: read-out: T1/2 Mean (converted)
Procedure: (§1) Frel of a crushed tablet administered via NGT versus oral liquid formulation was also evaluated. […] The effect of different flush media [D5W and infant formula (Similac®)] and coadministered nutritional supplement (Boost Plus®) on the liquid formulation's bioavailability was assessed.
(§2) Three open-label, randomized, crossover studies were conducted. […] Serial pharmacokinetics samples were collected. […] Frel was defined as the ratio of AUCinf.
(§3) Key exclusion criteria included: (i) any history or evidence of abnormal bleeding or coagulation disorders, intracranial hemorrhage, or abnormal bleeding; (ii) any gastrointestinal surgery that could impact upon the absorption of study drug; and (iii) current or recent (within 3 months) gastrointestinal disease including, but not limited to dyspepsia, gastrointestinal ulcers, esophageal or gastric varices, or hemorrhoids.

[2] = Study 2: open-label 3-way crossover, liquid formulation oral vs NGT with D5W or infant formula flush; conditions: for half-life / Tmax / AUC(0-t) / AUC(0-inf): human, plasma, 5 mg
Procedure: as §1, §2, §3

[3] = Study 3: open-label 3-way crossover, liquid formulation oral vs NGT with Boost Plus vs crushed tablet via NGT; conditions: for half-life / AUC(0-t) / AUC(0-inf) / Tmax: human, plasma, 5 mg; for Tmax: read-out: Tmax Median
Procedure: as §1, with “The apixaban liquid formulation was administered orally (PO), via nasogastric tube (NGT) with different flush media, or with an enteral meal (BOOST Plus®). Frel” for “Frel”
as §2, §3

[4] = Safety assessments in the studies (adverse events, vital signs, ECGs, laboratory tests); conditions: healthy subjects in the studies, 5 or 10 mg single doses
Excerpt: Safety assessments were made based on adverse event reports and the results of vital sign measurements, ECGs, physical examinations, and clinical laboratory tests.

[5] = Study 1, Treatment A: 2 × 5 mg Phase 3 tablets, oral, healthy subjects

With `COc1ccc(-n2nc(C(N)=O)c3c2C(=O)N(c2ccc(N4CCCCC4=O)cc2)CC3)cc1` [Apixaban, 4,5,6,7-tetrahydro-1-(4-methoxyphenyl)-7-oxo-6-[4-(2-oxo-1-piperidinyl)phenyl]-1H-pyrazolo[3,4-c]pyridine-3-carboxamide] the Cmax Adj.Geo.Mean ([1]; Study 1, Treatment A: 2 × 5 mg Phase 3 tablets) was 294 ng/mL, the Cmax Geo. Mean [1, 5] was 294 ng/mL and the “Tmax Median” value [1, 5] was 2 h. It also gave a Cmax Adj.Geo.Mean ([1]; Study 1, Treatment B: 25 mL × 0.4 mg/mL liquid formulation) of 287 ng/mL, a Cmax Geo. Mean ([1]; Study 1, Treatment B: 25 mL × 0.4 mg/mL liquid formulation, oral, healthy subjects) of 287 ng/mL and a Tmax ([1]; 10 mg, Study 1, Treatment B: 25 mL × 0.4 mg/mL liquid formulation, oral, healthy subjects, read-out: Tmax Median) of 2 h. For the same compound, the AUC(0-t) ([1]; oral, 10 mg, Study 1, Treatment A: 2 × 5 mg Phase 3 tablets, read-out: AUC(0-T) Adj.Geo.Mean) was 2670 ng·h/mL, the AUC(0-inf) ([1]; oral, 10 mg, Study 1, Treatment A: 2 × 5 mg Phase 3 tablets, read-out: AUCinf Adj.Geo.Mean) was 2710 ng·h/mL and the AUC(0-t) ([1]; oral, 10 mg, Study 1, Treatment B: 25 mL × 0.4 mg/mL liquid formulation, read-out: AUC(0-T) Adj.Geo.Mean) was 2780 ng·h/mL. For the same compound, the AUC(0-inf) ([1]; oral, 10 mg, Study 1, Treatment B: 25 mL × 0.4 mg/mL liquid formulation, read-out: AUCinf Adj.Geo.Mean) was 2850 ng·h/mL, the AUC(0-t) ([1]; po, 10 mg, Study 1, Treatment A: 2 × 5 mg Phase 3 tablets, oral, healthy subjects, read-out: AUC(0-T) Geo. Mean) was 2660 ng·h/mL and the AUC(0-inf) ([1]; po, 10 mg, Study 1, Treatment A: 2 × 5 mg Phase 3 tablets, oral, healthy subjects, read-out: AUCinf Geo. Mean) was 2710 ng·h/mL. For the same compound, the half-life ([1]; po, 10 mg, Study 1, Treatment A: 2 × 5 mg Phase 3 tablets, oral, healthy subjects) was 12.3 h, the AUC(0-t) ([1]; po, 10 mg, Study 1, Treatment B: 25 mL × 0.4 mg/mL liquid formulation, oral, healthy subjects, read-out: AUC(0-T) Geo. Mean) was 2790 ng·h/mL and the AUC(0-inf) ([1]; po, 10 mg, Study 1, Treatment B: 25 mL × 0.4 mg/mL liquid formulation, oral, healthy subjects, read-out: AUCinf Geo. Mean) was 2860 ng·h/mL. For the same compound, the half-life ([1]; po, 10 mg, Study 1, Treatment B: 25 mL × 0.4 mg/mL liquid formulation, oral, healthy subjects) was 13.8 h, the Tmax ([1]; summary over all treatments of Studies 1-3 except BOOST Plus, read-out: Tmax median) was 0.5 to 2 h and the Cmax Geo. Mean ([2]; Study 2, Treatment A: 5 mg (12.5 mL) liquid formulation by mouth via oral syringe) was 189 ng/mL. The Cmax Adj.Geo.Mean ([2]; Study 2, Treatment A: liquid formulation by mouth) was 191 ng/mL, the Cmax Adj.Geo.Mean ([2]; Study 2, Treatment B: liquid formulation via NGT, D5W flush) was 182 ng/mL and the “Frel Geo. Mean” value ([2]; Study 2, Treatment C (NGT, infant formula flush) versus oral liquid formulation) was 0.922. The Cmax Geo. Mean ([2]; Study 2, Treatment C: 5 mg (12.5 mL) liquid formulation via NGT followed by 60 mL of infant formula via NGT) was 153 ng/mL, the Cmax Adj.Geo.Mean ([2]; Study 2, Treatment C: liquid formulation via NGT, infant formula flush) was 154 ng/mL and the Frel ([2]; Study 2, liquid formulation via NGT flushed with 60 mL infant formula versus oral liquid formulation) was 92.2% and 92%. The half-life ([2]; Study 2, across the 3 treatments, read-out: mean T1/2 (converted)) was roughly 10.5 h, the Tmax ([2]; Study 2, across the 3 treatments, read-out: median Tmax) was 0.5 to 1 h and the AUC(0-t) ([2]; oral, Study 2, Treatment A: liquid formulation by mouth, read-out: AUC(0-T) Adj.Geo.Mean) was 1270 ng·h/mL. For the same compound, the AUC(0-inf) ([2]; oral, Study 2, Treatment A: liquid formulation by mouth, read-out: AUCinf Adj.Geo.Mean) was 1290 ng·h/mL, the AUC(0-t) ([2]; other: via nasogastric tube (NGT), Study 2, Treatment B: liquid formulation via NGT, D5W flush, read-out: AUC(0-T) Adj.Geo.Mean) was 1230 ng·h/mL and the AUC(0-inf) ([2]; other: via nasogastric tube (NGT), Study 2, Treatment B: liquid formulation via NGT, D5W flush, read-out: AUCinf Adj.Geo.Mean) was 1250 ng·h/mL. It also gave an AUC(0-t) ([2]; other: via nasogastric tube (NGT), Study 2, Treatment C: liquid formulation via NGT, infant formula flush, read-out: AUC(0-T) Adj.Geo.Mean) of 1170 ng·h/mL, an AUC(0-inf) ([2]; other: via nasogastric tube (NGT), Study 2, Treatment C: liquid formulation via NGT, infant formula flush, read-out: AUCinf Adj.Geo.Mean) of 1190 ng·h/mL and an AUC(0-t) ([2]; po, Study 2, Treatment A: 5 mg (12.5 mL) liquid formulation by mouth via oral syringe, read-out: AUC(0-T) Geo. Mean) of 1260 ng·h/mL. It also gave an AUC(0-inf) ([2]; po, Study 2, Treatment A: 5 mg (12.5 mL) liquid formulation by mouth via oral syringe, read-out: AUCinf Geo. Mean) of 1280 ng·h/mL, a half-life ([2]; po, Study 2, Treatment A: 5 mg (12.5 mL) liquid formulation by mouth via oral syringe, read-out: T1/2 Mean (converted)) of 10.5 h and a Tmax ([2]; po, Study 2, Treatment A: 5 mg (12.5 mL) liquid formulation by mouth via oral syringe, read-out: Tmax Median) of 0.517 h. The AUC(0-t) ([2]; po, Study 2, Treatment B: 5 mg (12.5 mL) liquid formulation via NGT followed by 60 mL of D5W via NGT, read-out: AUC(0-T) Geo. Mean) was 1210 ng·h/mL, the AUC(0-inf) ([2]; po, Study 2, Treatment B: 5 mg (12.5 mL) liquid formulation via NGT followed by 60 mL of D5W via NGT, read-out: AUCinf Geo. Mean) was 1240 ng·h/mL and the half-life ([2]; po, Study 2, Treatment B: 5 mg (12.5 mL) liquid formulation via NGT followed by 60 mL of D5W via NGT, read-out: T1/2 Mean (converted)) was 10.4 h. It also gave a Tmax ([2]; po, Study 2, Treatment B: 5 mg (12.5 mL) liquid formulation via NGT followed by 60 mL of D5W via NGT, read-out: Tmax Median) of 1 h, an AUC(0-t) ([2]; po, Study 2, Treatment C: 5 mg (12.5 mL) liquid formulation via NGT followed by 60 mL of infant formula via NGT, read-out: AUC(0-T) Geo. Mean) of 1150 ng·h/mL and an AUC(0-inf) ([2]; po, Study 2, Treatment C: 5 mg (12.5 mL) liquid formulation via NGT followed by 60 mL of infant formula via NGT, read-out: AUCinf Geo. Mean) of 1180 ng·h/mL. For the same compound, the half-life ([2]; po, Study 2, Treatment C: 5 mg (12.5 mL) liquid formulation via NGT followed by 60 mL of infant formula via NGT, read-out: T1/2 Mean (converted)) was 10.6 h, the Tmax ([2]; po, Study 2, Treatment C: 5 mg (12.5 mL) liquid formulation via NGT followed by 60 mL of infant formula via NGT, read-out: Tmax Median) was 1 h and the Cmax Geo. Mean (% CV) ([3]; Study 3, TRT A: 5 mg oral liquid formulation (0.4 mg/mL × 12.5 mL) administered orally) was 177 ng/mL. The Cmax Adj.Geo.Mean ([3]; Study 3, TRT A: 5 mg oral liquid formulation administered orally) was 179 ng/mL, the “Frel Geo. Mean” value ([3]; Study 3, TRT B (liquid formulation after Boost Plus via NGT) versus oral liquid formulation) was 0.813 and the Cmax Geo. Mean (% CV) ([3]; Study 3, TRT B: 5 mg oral liquid formulation (0.4 mg/mL × 12.5 mL) after Boost Plus via NGT) was 121 ng/mL. The Cmax Adj.Geo.Mean ([3]; Study 3, TRT B: 5 mg oral liquid formulation after Boost Plus via NGT) was 122 ng/mL, the “Frel Geo. Mean” value ([3]; Study 3, TRT C (crushed tablet via NGT) versus oral liquid formulation) was 0.951 and the Cmax Adj.Geo.Mean ([3]; Study 3, TRT C: 5 mg crushed tablet via NGT) was 158 ng/mL. For the same compound, the Cmax Geo. Mean (% CV) ([3]; Study 3, TRT C: 5 mg crushed tablet via NGT (suspended in 60 mL D5W)) was 158 ng/mL, the Frel ([3]; Study 3, crushed tablet via NGT versus oral liquid formulation) was 95% and the Frel ([3]; Study 3, liquid formulation with BOOST Plus via NGT versus oral liquid formulation) was 81%. The half-life ([3]; Study 3, between the 3 treatments, read-out: mean T1/2) was 9.6 to 11.2 h, the AUC(0-t) ([3]; other: via nasogastric tube (NGT), Study 3, TRT C: 5 mg crushed tablet via NGT (suspended in 60 mL D5W), read-out: AUC(0-T) Geo. Mean (% CV)) was 1300 ng·h/mL and the AUC(0-inf) ([3]; other: via nasogastric tube (NGT), Study 3, TRT C: 5 mg crushed tablet via NGT (suspended in 60 mL D5W), read-out: AUCinf Geo. Mean (% CV)) was 1320 ng·h/mL. It also gave a half-life ([3]; other: via nasogastric tube (NGT), Study 3, TRT C: 5 mg crushed tablet via NGT (suspended in 60 mL D5W), read-out: T1/2 Mean (converted)) of 10.4 h, a Tmax ([3]; other: via nasogastric tube (NGT), Study 3, TRT C: 5 mg crushed tablet via NGT (suspended in 60 mL D5W)) of 1 h and an AUC(0-t) ([3]; other: via nasogastric tube (NGT), Study 3, TRT C: 5 mg crushed tablet via NGT, read-out: AUC(0-T) Adj.Geo.Mean) of 1300 ng·h/mL. For the same compound, the AUC(0-inf) ([3]; other: via nasogastric tube (NGT), Study 3, TRT C: 5 mg crushed tablet via NGT, read-out: AUCinf Adj.Geo.Mean) was 1330 ng·h/mL, the AUC(0-t) ([3]; po, Study 3, TRT A: 5 mg oral liquid formulation (0.4 mg/mL × 12.5 mL) administered orally, read-out: AUC(0-T) Geo. Mean (% CV)) was 1350 ng·h/mL and the AUC(0-inf) ([3]; po, Study 3, TRT A: 5 mg oral liquid formulation (0.4 mg/mL × 12.5 mL) administered orally, read-out: AUCinf Geo. Mean (% CV)) was 1380 ng·h/mL. The half-life ([3]; po, Study 3, TRT A: 5 mg oral liquid formulation (0.4 mg/mL × 12.5 mL) administered orally, read-out: T1/2 Mean (converted)) was 11.2 h, the Tmax ([3]; po, Study 3, TRT A: 5 mg oral liquid formulation (0.4 mg/mL × 12.5 mL) administered orally) was 1 h and the AUC(0-t) ([3]; po, Study 3, TRT A: 5 mg oral liquid formulation administered orally, read-out: AUC(0-T) Adj.Geo.Mean) was 1370 ng·h/mL. For the same compound, the AUC(0-inf) ([3]; po, Study 3, TRT A: 5 mg oral liquid formulation administered orally, read-out: AUCinf Adj.Geo.Mean) was 1400 ng·h/mL, the AUC(0-t) ([3]; po, Study 3, TRT B: 5 mg oral liquid formulation (0.4 mg/mL × 12.5 mL) after Boost Plus via NGT, read-out: AUC(0-T) Geo. Mean (% CV)) was 1100 ng·h/mL and the AUC(0-inf) ([3]; po, Study 3, TRT B: 5 mg oral liquid formulation (0.4 mg/mL × 12.5 mL) after Boost Plus via NGT, read-out: AUCinf Geo. Mean (% CV)) was 1120 ng·h/mL. The half-life ([3]; po, Study 3, TRT B: 5 mg oral liquid formulation (0.4 mg/mL × 12.5 mL) after Boost Plus via NGT, read-out: T1/2 Mean (converted)) was 9.56 h, the Tmax ([3]; po, Study 3, TRT B: 5 mg oral liquid formulation (0.4 mg/mL × 12.5 mL) after Boost Plus via NGT) was 3 h and the AUC(0-t) ([3]; po, Study 3, TRT B: 5 mg oral liquid formulation after Boost Plus via NGT, read-out: AUC(0-T) Adj.Geo.Mean) was 1110 ng·h/mL. For the same compound, the AUC(0-inf) ([3]; po, Study 3, TRT B: 5 mg oral liquid formulation after Boost Plus via NGT, read-out: AUCinf Adj.Geo.Mean) was 1140 ng·h/mL and the “safety and tolerability” value [4] was “safe and well tolerated”.
